Results published in patent US8598234B2, “Compositions of dibromomalonamide and their use as biocides” (Dow Global Technologies LLC, priority 2009, dated 2013).
Read-outs that look alike come from different tables or passages of the source.

Tested on: mixture of Pseudomonas aeruginosa, Klebsiella pneumoniae, Staphylococcus aureus, and Bacillus subtilis
Experiment: Growth inhibition assay (microtiter plate-based synergy assay)
Format: cell-based
Conditions: 24 h; for concentration needed to prevent at least 90% of the growth (I90) of the microbial consortium: active used alone
Excerpt: Details of each assay are provided below.
Growth Inhibition Assay. […] Regardless of the mechanism of action, the impact of a biocide (or combination of biocides) can be measured over time on the basis of an increase in the size of the community.
The assay measures the efficacy of one or more biocides at preventing growth of a consortium of bacteria in a dilute mineral salts medium. The medium contains (in mg/l) the following components: FeCl3.6H2O (1); CaCl2.2H2O (10); MgSO4.7H2O (22.5); (NH4)2SO4 (40); KH2PO4 (10); K2HPO4 (25.5); Yeast Extract (10); and glucose (100). After all components are added to deionized water, the pH of the medium is adjusted to 7.5. Following filter sterilization, aliquots are dispensed in 100 ul quantities to sterile microtiter plate wells. Dilutions of 2,2-dibromomalonamide (“DBMAL”) and/or “Biocide B” are then added to the microtiter plate. After preparing the combinations of actives as illustrated below, each well is inoculated with 100 μl of a cell suspension containing ca. 1×10^6 cells per milliliter of a mixture of Pseudomonas aeruginosa, Klebsiella pneumoniae, Staphylococcus aureus, and Bacillus subtilis. The final total volume of medium in each well is 300 μl. Once prepared as described herein, the concentration of each active ranges from 25 ppm to 0.195 ppm as illustrated in Table 1. The resulting matrix allows testing of eight concentrations of each active and 64 combinations of actives in the ratios (of actives).
Controls (not shown) contain the medium with no biocide added. After preparing the combinations of actives as illustrated above, each well is inoculated with 100 μl of a cell suspension containing ca. 1×10^6 cells per milliliter of a mixture of Pseudomonas aeruginosa, Klebsiella pneumoniae, Staphylococcus aureus, and Bacillus subtilis. The final total volume of medium in each well is 300 μl.
Immediately after the microtiter plates are prepared, the optical density (OD) readings for each well is measured at 580 nm and the plates are then incubated at 37° C. for 24 hr. After the incubation period, the plates are gently agitated before OD580 values are collected. The OD580 values at T0 are subtracted from T24 values to determine the total amount of growth (or lack thereof) that occurs. These values are used to calculate the percent inhibition of growth caused by the presence of each biocide and each of the 64 combinations.
where • CDBMAL: Concentration of DBMAL required to inhibit ˜90% of bacterial growth when used alone • CB: Concentration of biocide (B) required to inhibit ˜90% of bacterial growth when used alone.
MDBMAL: Concentration of DBMAL required to inhibit ˜90% of bacterial growth when used in combination with biocide (B).
MB: Concentration of biocide (B) required to inhibit ˜90% of bacterial growth when used in combination with DBMAL
The SI values are interpreted as follows:
• SI<1: Synergistic combination • SI=1: Additive combination • SI>1: Antagonistic combination
In the Examples below, the amounts of biocides in the solution are measured in mg per liter of solution (mg/l). Since solution densities are approximately 1.00, the mg/l measurement corresponds to weight ppm. Both units may therefore be used interchangeably in the Examples.

[1] = read-out: % Inhibition of growth by SOPP

Row | SMILES | inhibition at […] (DBMAL alone 0.19 mg/l, OD580) | inhibition at 0.39 µg/mL (DBMAL alone 0.39 mg/l, OD580) | inhibition at 0.78 µg/mL (DBMAL alone 0.78 mg/l, OD580, read-out: % Inhibition of growth by DBMAL) | inhibition at 1.56 µg/mL (DBMAL alone 1.56 mg/l, OD580, read-out: % Inhibition of growth by DBMAL) | inhibition at 3.13 µg/mL (DBMAL alone 3.13 mg/l, OD580, read-out: % Inhibition of growth by DBMAL) | inhibition at 6.25 µg/mL (DBMAL alone 6.25 mg/l, OD580, read-out: % Inhibition of growth by DBMAL) | inhibition at 12.5 µg/mL (DBMAL alone 12.5 mg/l, OD580, read-out: % Inhibition of growth by DBMAL) | inhibition at 25 µg/mL (DBMAL alone 25.0 mg/l, OD580, read-out: % Inhibition of growth by DBMAL) | concentration needed to prevent at least 90% of the growth (I90) of the microbial consortium | inhibition at 0.78 µg/mL [1] | inhibition at 1.56 µg/mL [1] | inhibition at 3.13 µg/mL [1] | inhibition at 6.25 µg/mL [1] | inhibition at 12.5 µg/mL [1] | inhibition at 25 µg/mL [1] | inhibition at 50 µg/mL [1]
1 | NC(=O)C(Br)(Br)C(N)=O [DBMAL, 2,2-dibromomalonamide] | 0% | 4% | 7% | 0% | 0% | 49% | 100% | 100% | 12.5 mg/L | – | – | – | – | – | – | –
2 | Oc1ccccc1-c1ccccc1.[Na] [SOPP, sodium ortho-phenylphenol] | – | – | – | – | – | – | – | – | 500 mg/L | 0% | 17% | 0% | 37% | 68% | 98% | 98%
